pIC50: −log10 of the molar value.
Legend:
[1] = test system: MCF7; assay: Antiproliferative activity against human MCF7 cells incubated for 48 hrs by MTT assay; type: functional, cell-based; conditions: MCF7, 48 h
[2] = test system: HeLa; assay: Antiproliferative activity against human HeLa cells incubated for 48 hrs by MTT assay; type: functional, cell-based
[3] = test system: HepG2; assay: Antiproliferative activity against human HepG2 cells incubated for 48 hrs by MTT assay; type: functional, cell-based; conditions: HepG2, 48 h
[4] = biological target: 72 kDa type IV collagenase (Homo sapiens, UniProt P08253); assay: Inhibition of APMA-activated human recombinant MMP2 incubated for 5 mins using 4-nitrophenylacetate substrate by esterase assay; conditions: for pIC50: read-out: IC50; for IC50: read-out: pIC50 (converted)
[5] = biological target: Matrix metalloproteinase-9 (Homo sapiens, UniProt P14780); assay: Inhibition of APMA-activated human recombinant MMP9 incubated for 5 mins using 4-nitrophenylacetate substrate by esterase assay
[6] = Cytotoxicity against HEK293T cells incubated for 48 hrs by MTT assay; type: cell-based, HEK-293T; conditions: human
[7] = test system: A549; assay: cells; conditions: Homo sapiens, A549, 48 h
[8] = test system: A549; assay: Induction of apoptosis in human A549 cells assessed as viable cells at 16 uM by AnnexinV-FITC and propidium iodide staining based flow cytometry (reference value: 85.3%); type: functional; conditions: read-out: Activity
[9] = test system: A549; assay: Induction of apoptosis in human A549 cells assessed as early apoptotic cells level at 16 uM by AnnexinV-FITC and propidium iodide staining based flow cytometry (reference value: 5.08%); type: functional
[10] = test system: A549; assay: Induction of apoptosis in human A549 cells assessed as late apoptotic cells level at 16 uM by AnnexinV-FITC and propidium iodide staining based flow cytometry (reference value: 8.81%); type: functional
[11] = test system: A549; assay: Induction of apoptosis in human A549 cells assessed as necrotic cells level at 16 uM by AnnexinV-FITC and propidium iodide staining based flow cytometry (reference value: 0.964%); type: functional
[12] = test system: A549; assay: Induction of apoptosis in human A549 cells assessed as viable cells at 4 uM by AnnexinV-FITC and propidium iodide staining based flow cytometry (reference value: 85.3%); type: functional; conditions: read-out: Activity
[13] = test system: A549; assay: Induction of apoptosis in human A549 cells assessed as early apoptotic cells level at 4 uM by AnnexinV-FITC and propidium iodide staining based flow cytometry (reference value: 5.08%); type: functional
[14] = test system: A549; assay: Induction of apoptosis in human A549 cells assessed as late apoptotic cells level at 4 uM by AnnexinV-FITC and propidium iodide staining based flow cytometry (reference value: 8.81%); type: functional
[15] = test system: A549; assay: Induction of apoptosis in human A549 cells assessed as necrotic cells level at 4 uM by AnnexinV-FITC and propidium iodide staining based flow cytometry (reference value: 0.964%); type: functional
[16] = test system: A549; assay: Induction of apoptosis in human A549 cells assessed as viable cells at 2 uM by AnnexinV-FITC and propidium iodide staining based flow cytometry (reference value: 85.3%); type: functional; conditions: read-out: Activity
[17] = test system: A549; assay: Induction of apoptosis in human A549 cells assessed as early apoptotic cells level at 2 uM by AnnexinV-FITC and propidium iodide staining based flow cytometry (reference value: 5.08%); type: functional
[18] = test system: A549; assay: Induction of apoptosis in human A549 cells assessed as late apoptotic cells level at 2 uM by AnnexinV-FITC and propidium iodide staining based flow cytometry (reference value: 8.81%); type: functional
[19] = test system: A549; assay: Induction of apoptosis in human A549 cells assessed as necrotic cells level at 2 uM by AnnexinV-FITC and propidium iodide staining based flow cytometry (reference value: 0.964%); type: functional
[20] = test system: A549; assay: Induction of apoptosis in human A549 cells by AnnexinV-FITC and propidium iodide staining based flow cytometry; type: functional, cell-based

Chain of Matrix metalloproteinase-9 (P14780 whole entry): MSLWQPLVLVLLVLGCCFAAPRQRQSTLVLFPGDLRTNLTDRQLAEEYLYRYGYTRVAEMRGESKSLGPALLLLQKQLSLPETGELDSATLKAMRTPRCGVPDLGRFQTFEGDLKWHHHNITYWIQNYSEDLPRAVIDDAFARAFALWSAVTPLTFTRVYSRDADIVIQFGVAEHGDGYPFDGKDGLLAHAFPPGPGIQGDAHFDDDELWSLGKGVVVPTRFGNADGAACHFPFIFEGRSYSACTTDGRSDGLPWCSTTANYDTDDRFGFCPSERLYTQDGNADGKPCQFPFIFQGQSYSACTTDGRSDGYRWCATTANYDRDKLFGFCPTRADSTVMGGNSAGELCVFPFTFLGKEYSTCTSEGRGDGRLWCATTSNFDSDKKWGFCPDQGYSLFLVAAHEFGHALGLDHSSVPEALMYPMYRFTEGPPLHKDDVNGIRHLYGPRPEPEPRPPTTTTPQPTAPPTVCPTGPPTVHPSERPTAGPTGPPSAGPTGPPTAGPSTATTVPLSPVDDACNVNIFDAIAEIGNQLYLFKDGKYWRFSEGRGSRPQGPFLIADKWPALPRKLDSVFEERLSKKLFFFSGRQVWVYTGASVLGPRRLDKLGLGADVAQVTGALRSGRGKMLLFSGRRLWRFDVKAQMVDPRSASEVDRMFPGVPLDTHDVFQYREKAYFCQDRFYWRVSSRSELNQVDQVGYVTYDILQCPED
Chain of 72 kDa type IV collagenase (P08253 whole entry): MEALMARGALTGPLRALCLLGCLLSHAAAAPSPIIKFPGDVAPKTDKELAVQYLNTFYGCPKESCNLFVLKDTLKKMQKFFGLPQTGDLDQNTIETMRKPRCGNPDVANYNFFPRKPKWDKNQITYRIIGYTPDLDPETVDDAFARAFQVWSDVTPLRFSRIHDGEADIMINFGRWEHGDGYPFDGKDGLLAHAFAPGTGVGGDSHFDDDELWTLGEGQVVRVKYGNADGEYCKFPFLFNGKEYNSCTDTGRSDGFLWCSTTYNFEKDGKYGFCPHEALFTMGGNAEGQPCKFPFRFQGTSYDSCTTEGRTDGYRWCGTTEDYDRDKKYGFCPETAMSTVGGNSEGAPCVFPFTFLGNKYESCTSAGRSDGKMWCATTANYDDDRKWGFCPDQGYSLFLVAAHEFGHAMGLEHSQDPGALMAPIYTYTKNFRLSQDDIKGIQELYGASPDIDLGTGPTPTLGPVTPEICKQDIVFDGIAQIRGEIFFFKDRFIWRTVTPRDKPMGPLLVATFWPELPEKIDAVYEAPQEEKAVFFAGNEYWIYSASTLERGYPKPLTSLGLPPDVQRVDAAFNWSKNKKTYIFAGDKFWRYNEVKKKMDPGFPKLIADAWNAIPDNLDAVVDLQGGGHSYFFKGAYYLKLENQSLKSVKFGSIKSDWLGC

pIC50 [1]	pIC50 [2]	pIC50 [3]	pIC50 [4]	pIC50 [5]	pIC50 [7]	Structure (SMILES)	CC50 at 48 h [6]	other results
5.04	4.63	4.54	4.75	4.86	4.99	NS(=O)(=O)c1ccc(N2N=C(c3cccc(Br)c3)CC2c2ccc3ccccc3c2)cc1 (centres undefined)	47 µM	–
4.88	4.68	4.61	4.62	5.22	5.11	NS(=O)(=O)c1ccc(N2N=C(c3cccc(F)c3)CC2c2ccc3ccccc3c2)cc1 (centres undefined)	49 µM	–
4.74	4.76	5.08	5.55	5.31	5.16	Cc1ccc(C2=NN(c3ccc(S(N)(=O)=O)cc3)C(c3ccc4ccccc4c3)C2)cc1 (centres undefined)	53.1 µM	–
4.54	4.54	4.83	4.94	5.10	5.09	NS(=O)(=O)c1ccc(N2N=C(c3cccc(Br)c3)CC2c2cccc3ccccc23)cc1 (centres undefined)	42.2 µM	IC50 [4]: 11.2 µM
4.63	4.54	5.00	5.06	4.92	5.13	NS(=O)(=O)c1ccc(N2N=C(c3ccccc3Cl)CC2c2cccc3ccccc23)cc1 (centres undefined)	53.1 µM	IC50 [4]: 8.51 µM
4.66	4.88	4.75	4.90	4.47	5.07	NS(=O)(=O)c1ccc(N2N=C(c3ccccc3)CC2c2ccc3ccccc3c2)cc1 (centres undefined)	50.5 µM	–
4.42	4.45	5.04	4.83	4.74	4.75	CCOc1ccc(C2=NN(c3ccc(S(N)(=O)=O)cc3)C(c3ccc4ccccc4c3)C2)cc1 (centres undefined)	53.8 µM	–
4.96	4.58	5.11	5.41	5.23	5.12	Cc1cccc(C2=NN(c3ccc(S(N)(=O)=O)cc3)C(c3ccc4ccccc4c3)C2)c1 (centres undefined)	52.4 µM	–
4.96	4.49	4.74	4.80	5.16	4.92	NS(=O)(=O)c1ccc(N2N=C(c3cccc(I)c3)CC2c2ccc3ccccc3c2)cc1 (centres undefined)	55.9 µM	–
5.06	5.01	5.23	5.49	5.37	5.50	Cc1cccc(C2=NN(c3ccc(S(N)(=O)=O)cc3)C(c3cccc4ccccc34)C2)c1 (centres undefined)	48.2 µM	–
4.65	4.70	4.72	5.10	4.96	4.89	NS(=O)(=O)c1ccc(N2N=C(c3ccccc3)CC2c2cccc3ccccc23)cc1 (centres undefined)	51.4 µM	–
4.58	4.51	4.44	5.32	5.17	5.24	COc1cccc(C2=NN(c3ccc(S(N)(=O)=O)cc3)C(c3cccc4ccccc34)C2)c1 (centres undefined)	45.3 µM	–
–	–	–	–	–	5.54	COc1cc2ncnc(Nc3ccc(F)c(Cl)c3)c2cc1OCCCN1CCOCC1 [GEFITINIB]	–	–
4.74	4.94	4.78	5.57	5.26	5.53	NS(=O)(=O)c1ccc(N2N=C(c3ccc(Cl)cc3)CC2c2cccc3ccccc23)cc1 (centres undefined)	49.2 µM	–
4.58	4.52	4.56	5.37	5.06	5.19	COc1ccc(C2=NN(c3ccc(S(N)(=O)=O)cc3)C(c3cccc4ccccc34)C2)cc1 (centres undefined)	47.1 µM	IC50 [4]: 4.17 µM
4.74	4.58	5.09	5.03	4.89	5.17	NS(=O)(=O)c1ccc(N2N=C(c3cccc(I)c3)CC2c2cccc3ccccc23)cc1 (centres undefined)	46.9 µM	–
4.91	4.58	4.68	4.77	4.70	5.16	NS(=O)(=O)c1ccc(N2N=C(c3ccc(F)cc3)CC2c2ccc3ccccc3c2)cc1 (centres undefined)	49.5 µM	–
5.00	5.06	5.15	5.17	4.80	5.11	Cc1ccc(C2=NN(c3ccc(S(N)(=O)=O)cc3)C(c3cccc4ccccc34)C2)cc1 (centres undefined)	51.3 µM	–
5.06	4.78	4.51	4.83	5.06	5.67	NS(=O)(=O)c1ccc(N2N=C(c3ccccc3Cl)CC2c2ccc3ccccc3c2)cc1 (centres undefined)	49.9 µM	–
4.74	4.92	5.16	6.68	5.73	5.72	Cc1ccc(C2=NN(c3ccc(S(N)(=O)=O)cc3)C(c3cccc4ccccc34)C2)c(C)c1 (centres undefined)	52.5 µM	viability at 16 µM [8]: 78.3%; Activity [9]: 3.88%; Activity [10]: 16.9%; Activity [11]: 0.868%; viability at 4 µM [12]: 81.1%; Activity [13]: 4.84%; Activity [14]: 12.9%; Activity [15]: 1.14%; viability at 2 µM [16]: 82.8%; Activity [17]: 5.91%; Activity [18]: 10.2%; Activity [19]: 1.1%; Activity [20]: Dose-dependent effect
4.87	4.44	4.58	5.67	5.33	5.06	COc1cccc(C2=NN(c3ccc(S(N)(=O)=O)cc3)C(c3ccc4ccccc4c3)C2)c1 (centres undefined)	49.4 µM	–
5.16	5.12	6.12	–	–	5.67	Cc1ccc(-c2cc(C(F)(F)F)nn2-c2ccc(S(N)(=O)=O)cc2)cc1 [CELECOXIB]	54.4 µM	–
4.30	4.45	4.65	5.00	4.72	5.03	COc1ccc(C2=NN(c3ccc(S(N)(=O)=O)cc3)C(c3ccc4ccccc4c3)C2)cc1 (centres undefined)	45.4 µM	–
4.46	4.73	5.06	6.09	5.50	5.48	CCOc1ccc(C2=NN(c3ccc(S(N)(=O)=O)cc3)C(c3cccc4ccccc34)C2)cc1 (centres undefined)	59.5 µM	–
4.79	4.81	5.16	4.94	5.10	5.16	Cc1ccccc1C1=NN(c2ccc(S(N)(=O)=O)cc2)C(c2ccc3ccccc3c2)C1 (centres undefined)	51.7 µM	–
4.91	4.72	4.60	5.44	5.23	5.56	NS(=O)(=O)c1ccc(N2N=C(c3ccc(Cl)cc3)CC2c2ccc3ccccc3c2)cc1 (centres undefined)	54.8 µM	–
5.00	5.20	5.27	5.54	5.27	5.55	Cc1ccccc1C1=NN(c2ccc(S(N)(=O)=O)cc2)C(c2cccc3ccccc23)C1 (centres undefined)	51.2 µM	–

Structure (SMILES)	pIC50 [1]	pIC50 [2]	pIC50 [3]	pIC50 [4]	pIC50 [5]	pIC50 [7]	CC50 at 48 h [6]	other results
C[C@@]1(O)c2cccc(O)c2C(=O)C2=C(O)[C@]3(O)C(=O)C(C(N)=O)=C(O)C[C@@H]3C[C@@H]21	–	–	–	5.90	5.60	–	–	–
